Here are results for two compounds from publication PMC3777854 (Journal of clinical pharmacology, 2013).

Broadly, the half-life is how long it takes for the measured level to halve. A lower half-life goes with fast loss.

Series [1] has as its system CYP3A. Description: Effect of brentuximab vedotin on midazolam PK.
In series [2] the test system is CYP3A. In words: Effect of rifampin on brentuximab vedotin. It is filed as in vivo, human. To be noted: for MMAE Tmax: median (range).
The test system of series [3] is CYP3A. Description: Effect of ketoconazole on brentuximab vedotin. In kind it is in vivo, human. To be noted: for MMAE Tmax: median (range); for MMAE Tmax / MMAE Cmax: n=16.
Series [4] can be described thus: Excretion of MMAE in urine and feces. It is filed as in vivo, human.
The conditions of series [5]: on a mass basis; cited from earlier work.
The test system of series [6] is CYP3A. To be noted: not of this paper; cited from earlier work.

“Also recorded” adds a separate entry of the source. Marks after values point to notes of the source that are not given here. Square brackets hold non-standard residues; d marks the D form. Peptide text beside a SMILES is read from it. * marks the point of attachment. Dolaproine = CO[C@@H]([C@@H]1CCCN1)[C@@H](C)C(=O)O; Dil = CC[C@H](C)[C@H](NC)[C@@H](CC(=O)O)OC; X1 = C[C@@H](N*)[C@@H](O)c1ccccc1; NMeV = CN[C@H](C(=O)O)C(C)C

With `Cc1ncc2n1-c1ccc(Cl)cc1C(c1ccccc1F)=NC2` [Midazolam, midazolam], in the series with CYP3A [1] (human, plasma, intravenous), the Tmax stood at 2.52 min and the half-life was 5.69 h. Further, in the series with CYP3A [1] (human, plasma, intravenous, 1 mg), the Tmax was found to be 3 min. In the series with CYP3A [1] (human, plasma, iv, 1 mg), this compound gave an AUC(0-inf) of 79 ng·h/mL, a Cmax of 73 ng/mL and a half-life of 6.4 h.
For `CC[C@H](C)[C@@H]([C@@H](CC(=O)N1CCC[C@H]1[C@H](OC)[C@@H](C)C(=O)N[C@H](C)[C@@H](O)c1ccccc1)OC)N(C)C(=O)[C@@H](NC(=O)[C@@H](NC)C(C)C)C(C)C` [MMAE, monomethyl auristatin E] (H-[NMeV]V[Dil][Dolaproine]-X1), the “MMAE AUC0-∞” value was 40.06 (53) d·ng/mL in the series on CYP3A [2] (brentuximab vedotin 1.8 mg/kg IV alone, plasma, geometric mean (%CV), n=14) and 26.65 (71) d·ng/mL with CYP3A [3] (brentuximab vedotin 1.2 mg/kg IV alone, plasma, geometric mean (%CV), n=14). Also, the “MMAE t1/2” value with CYP3A [2] (brentuximab vedotin 1.8 mg/kg alone, geometric mean (%CV), n=14) was 3.71 (19) d; in the series on CYP3A [2] (brentuximab vedotin 1.8 mg/kg with rifampin, geometric mean (%CV), n=14), 3.66 (17) d; in the series on CYP3A [3] (brentuximab vedotin 1.2 mg/kg alone, geometric mean (%CV), n=14), 3.06 (13) d; in the series on CYP3A [3] (brentuximab vedotin 1.2 mg/kg with ketoconazole, geometric mean (%CV), n=14), 3.47 (66) d. The “MMAE Tmax” value in the series with CYP3A [2] (brentuximab vedotin 1.8 mg/kg alone, n=14) is 3.00 (0.99, 5.01) ^a d; in the series on CYP3A [2] (brentuximab vedotin 1.8 mg/kg with rifampin, n=14) it was 1.49 (0.33, 4.02) ^a d; in the series with CYP3A [3] (brentuximab vedotin 1.2 mg/kg alone), 1.97 (0.97, 6.99) ^a d; with CYP3A [3] (brentuximab vedotin 1.2 mg/kg with ketoconazole), 2.45 (0.22, 4.06) ^a d. Moreover, the “MMAE Cmax” value in the series on CYP3A [2] (brentuximab vedotin 1.8 mg/kg alone, plasma, geometric mean (%CV), n=14) is given as 4.98 (67) ng/mL; with CYP3A [2] (brentuximab vedotin 1.8 mg/kg with rifampin, plasma, geometric mean (%CV), n=14), 2.80 (36) ng/mL; in the series on CYP3A [3] (brentuximab vedotin 1.2 mg/kg alone, plasma, geometric mean (%CV)), 4.11 (71) ng/mL; with CYP3A [3] (brentuximab vedotin 1.2 mg/kg with ketoconazole, plasma, geometric mean (%CV)), 5.13 (114) ng/mL. Further, the “MMAE exposures lower when rifampin was coadministered” value with CYP3A [2] (brentuximab vedotin 1.8 mg/kg with rifampin vs alone) is ~ 46%. Besides, the “MMAE exposures higher when ketoconazole was coadministered” value in the series on CYP3A [3] (brentuximab vedotin 1.2 mg/kg with ketoconazole vs alone) is reported as ~ 34%. In the series with CYP3A [3] (in Cycle 1, exploratory analysis of the period effect), the “potential increase of MMAE AUC0-∞ by coadministration of ketoconazole” value is recorded as ~ 73%. The “expected increase in MMAE levels with ketoconazole” value in the series on CYP3A [3] (later cycles, relative to Cycle 1 MMAE levels without ketoconazole) is listed as at most 38%. Further, the “number of MMAE metabolites detected in urine and feces” value in series [4] (after concentrating the liquid-liquid extracts ten-fold, LC-MS/MS) worked out at 8. Also, the “concentration of MMAE in excreta relative to its metabolites” value in series [4] (estimate, metabolites only detected upon 10-fold concentration) is reported as “at least 10 fold”. The “MMAE recovered in urine and feces” value in series [4] (of MMAE received during a brentuximab vedotin 1.8 mg/kg infusion, over a 1-week period, n=8) is given as ~ 23.5%. Moreover, the “percentage of recovered MMAE excreted in feces, median” value in series [4] (over 1 week after brentuximab vedotin 1.8 mg/kg, remainder in urine) was found to be 72%. The “MMAE exposures lower than those of the ADC” value in series [5] is listed as ~ 2000 fold. In addition, the “CYP3A induction (in vitro studies)” value in the series with CYP3A [6] is “does not induce CYP3A”. Moreover, in the series with CYP3A [1] (brentuximab vedotin 1.8 mg/kg, midazolam as probe substrate), the “inhibition or induction of CYP3A in humans (conclusion)” value was “neither inhibitors nor inducers of CYP3A; also recorded: neither an inhibitor nor inducer of CYP3A”.
